According to ChEMBL document CHEMBL4699602, “Stapled and Xenopus Glucagon-Like Peptide 1 (GLP-1)-Based Dual GLP-1/Gastrin Receptor Agonists with Improved Metabolic Benefits in Rodent Models of Obesity and Diabetes” (J Med Chem, 2020):
pEC50: −log10 of the molar value. Where a SMILES comes first, the peptide text is derived from it.

Columns and labels:
[1] = molecular target: T1, Glucagon-like peptide 1 receptor (Homo sapiens, UniProt P43220); assay: Agonist activity at human GLP-1R expressed in HEK293 cells assessed as stimulation of cAMP accumulation incubated for 20 mins in presence of 4.4% HSA; format: functional, cell-based
T1 sequence (P43220 whole entry): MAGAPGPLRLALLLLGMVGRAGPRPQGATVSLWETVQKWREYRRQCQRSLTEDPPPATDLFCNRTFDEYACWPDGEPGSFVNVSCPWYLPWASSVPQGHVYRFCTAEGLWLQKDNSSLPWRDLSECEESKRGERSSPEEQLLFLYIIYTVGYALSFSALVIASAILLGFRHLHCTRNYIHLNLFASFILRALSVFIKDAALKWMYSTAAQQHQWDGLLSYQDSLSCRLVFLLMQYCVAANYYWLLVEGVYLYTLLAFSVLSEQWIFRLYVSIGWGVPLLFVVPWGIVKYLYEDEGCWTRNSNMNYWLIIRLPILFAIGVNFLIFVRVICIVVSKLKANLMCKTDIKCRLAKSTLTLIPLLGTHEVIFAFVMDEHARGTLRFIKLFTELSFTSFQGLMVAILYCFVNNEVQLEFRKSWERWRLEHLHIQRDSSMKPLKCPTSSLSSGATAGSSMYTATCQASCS

[2] = molecular target: T1, Glucagon-like peptide 1 receptor; assay: Ratio of EC50 for agonist activity at human GLP-1R expressed in HEK293 cells in presence of 4.4% HSA to EC50 for agonist activity at human GLP-1R expressed in HEK293 cells in presence of 0% HSA; format: cell-based
[3] = molecular target: T1, Glucagon-like peptide 1 receptor; assay: Agonist activity at human GLP-1R expressed in HEK293 cells assessed as stimulation of cAMP accumulation incubated for 20 mins in presence of 0% HSA; format: functional, cell-based

Structure (SMILES)	pEC50 [1]	Ratio EC50 [2]	pEC50 [3]
CC[C@H](C)[C@H](NC(=O)[C@H](CC(C)C)NC(=O)[C@H](Cc1c[nH]c2ccccc12)NC(=O)[C@H](CCC(=O)O)NC(=O)[C@@H](NC(=O)[C@H](Cc1ccccc1)NC(=O)[C@@H]1CSC2CC(=O)N(CCC(=O)NC(C(=O)NCCCCCCNC(=O)COCCOCCNC(=O)CCC(NC(=O)CCCCCCCCCCCCCCCCC(=O)O)C(=O)O)CCCCNC(=O)CCN3C(=O)CC(SC[C@H](NC(=O)[C@H](Cc4ccc(O)cc4)NC(=O)[C@H](CCC(=O)O)NC(=O)[C@@H](NC(=O)[C@@H](NC(=O)[C@H](CC(=O)O)NC(=O)[C@H](CC(N)=O)NC(=O)[C@@H](NC(=O)[C@H](Cc4ccc(O)cc4)NC(=O)[C@@H](NC(=O)CNC(=O)[C@H](CCC(=O)O)NC(=O)C(C)(C)NC(=O)[C@@H](N)Cc4c[nH]cn4)[C@@H](C)O)[C@@H](C)O)C(C)C)[C@@H](C)O)C(=O)N[C@@H](CCC(=O)O)C(=O)N[C@@H](CCC(=O)O)C(=O)N[C@@H](CCC(=O)O)C(=O)N[C@@H](C)C(=O)N[C@@H](C)C(=O)N[C@@H](CCCCN)C(=O)N1)C3=O)C2=O)[C@@H](C)CC)C(=O)N[C@@H](CCCCN)C(=O)NCC(=O)N[C@@H](CCCCN)C(=O)N1CCC[C@H]1C(=O)N[C@@H](CO)C(=O)N[C@@H](CO)C(=O)NCC(=O)N[C@@H](C)C(=O)N1CCC[C@H]1C(=O)N1CCC[C@H]1C(=O)N1CCC[C@H]1C(=O)N[C@@H](CO)C(N)=O (stereo not given in full) (HELM PEPTIDE1{H.[Aib].E.G.T.Y.T.N.D.V.T.E.Y.C.E.E.E.A.A.K.C.F.I.E.W.L.I.K.G.K.P.S.S.G.A.P.P.P.S.[am]}|CHEM1{[O=C(O)CCCCCCCCCCCCCCCCC(=O)NC(CCC(=O)NCCOCCOCC(=O)NCCCCCCNC(=O)C(CCCCNC(=O)CCN1C(=O)CC([*:1])C1=O)NC(=O)CCN1C(=O)CC([*:2])C1=O)C(=O)O]}$PEPTIDE1,CHEM1,14:R3-1:R1|PEPTIDE1,CHEM1,21:R3-1:R2$$$V2.0)	8.23	59	10.00
CC[C@H](C)[C@H](NC(=O)[C@H](CC(C)C)NC(=O)[C@H](Cc1c[nH]c2ccccc12)NC(=O)[C@H](CCC(=O)O)NC(=O)[C@@H](NC(=O)[C@H](Cc1ccccc1)NC(=O)[C@@H]1CSC2CC(=O)N(CCC(=O)NC(C(=O)NCCCCCCNC(=O)COCCOCCNC(=O)CCCCCCCCCCCCCCCCC(=O)O)CCCCNC(=O)CCN3C(=O)CC(SC[C@H](NC(=O)[C@H](Cc4ccc(O)cc4)NC(=O)[C@H](CCC(=O)O)NC(=O)[C@@H](NC(=O)[C@@H](NC(=O)[C@H](CC(=O)O)NC(=O)[C@H](CC(N)=O)NC(=O)[C@@H](NC(=O)[C@H](Cc4ccc(O)cc4)NC(=O)[C@@H](NC(=O)CNC(=O)[C@H](CCC(=O)O)NC(=O)C(C)(C)NC(=O)[C@@H](N)Cc4c[nH]cn4)[C@@H](C)O)[C@@H](C)O)C(C)C)[C@@H](C)O)C(=O)N[C@@H](CCC(=O)O)C(=O)N[C@@H](CCC(=O)O)C(=O)N[C@@H](CCC(=O)O)C(=O)N[C@@H](C)C(=O)N[C@@H](C)C(=O)N[C@@H](CCCCN)C(=O)N1)C3=O)C2=O)[C@@H](C)CC)C(=O)N[C@@H](CCCCN)C(=O)NCC(=O)N[C@@H](CCCCN)C(=O)N1CCC[C@H]1C(=O)N[C@@H](CO)C(=O)N[C@@H](CO)C(=O)NCC(=O)N[C@@H](C)C(=O)N1CCC[C@H]1C(=O)N1CCC[C@H]1C(=O)N1CCC[C@H]1C(=O)N[C@@H](CO)C(N)=O (stereo not given in full) (HELM PEPTIDE1{H.[Aib].E.G.T.Y.T.N.D.V.T.E.Y.C.E.E.E.A.A.K.C.F.I.E.W.L.I.K.G.K.P.S.S.G.A.P.P.P.S.[am]}|CHEM1{[O=C(O)CCCCCCCCCCCCCCCCC(=O)NCCOCCOCC(=O)NCCCCCCNC(=O)C(CCCCNC(=O)CCN1C(=O)CC([*:1])C1=O)NC(=O)CCN1C(=O)CC([*:2])C1=O]}$PEPTIDE1,CHEM1,14:R3-1:R1|PEPTIDE1,CHEM1,21:R3-1:R2$$$V2.0)	8.89	11.8	9.96
CC[C@H](C)[C@H](NC(=O)[C@H](CC(C)C)NC(=O)[C@H](Cc1c[nH]c2ccccc12)NC(=O)[C@H](CCC(=O)O)NC(=O)[C@@H](NC(=O)[C@H](Cc1ccccc1)NC(=O)[C@@H]1CSC2CC(=O)N(CCC(=O)NC(C(=O)NCCCCCCNC(=O)COCCOCCNC(=O)COCCOCCNC(=O)CCC(NC(=O)CCCCCCCCCCCCCCCCC(=O)O)C(=O)O)CCCCNC(=O)CCN3C(=O)CC(SC[C@H](NC(=O)[C@H](Cc4ccc(O)cc4)NC(=O)[C@H](CCC(=O)O)NC(=O)[C@@H](NC(=O)[C@@H](NC(=O)[C@H](CC(=O)O)NC(=O)[C@H](CC(N)=O)NC(=O)[C@@H](NC(=O)[C@H](Cc4ccc(O)cc4)NC(=O)[C@@H](NC(=O)CNC(=O)[C@H](CCC(=O)O)NC(=O)C(C)(C)NC(=O)[C@@H](N)Cc4c[nH]cn4)[C@@H](C)O)[C@@H](C)O)C(C)C)[C@@H](C)O)C(=O)N[C@@H](CCC(=O)O)C(=O)N[C@@H](CCC(=O)O)C(=O)N[C@@H](CCC(=O)O)C(=O)N[C@@H](C)C(=O)N[C@@H](C)C(=O)N[C@@H](CCCCN)C(=O)N1)C3=O)C2=O)[C@@H](C)CC)C(=O)N[C@@H](CCCCN)C(=O)NCC(=O)N[C@@H](CCCCN)C(N)=O (stereo not given in full) (HELM PEPTIDE1{H.[Aib].E.G.T.Y.T.N.D.V.T.E.Y.C.E.E.E.A.A.K.C.F.I.E.W.L.I.K.G.K.[am]}|CHEM1{[O=C(O)CCCCCCCCCCCCCCCCC(=O)NC(CCC(=O)NCCOCCOCC(=O)NCCOCCOCC(=O)NCCCCCCNC(=O)C(CCCCNC(=O)CCN1C(=O)CC([*:1])C1=O)NC(=O)CCN1C(=O)CC([*:2])C1=O)C(=O)O]}$PEPTIDE1,CHEM1,14:R3-1:R1|PEPTIDE1,CHEM1,21:R3-1:R2$$$V2.0)	7.84	90.6	9.80

More lines, now with the values ahead:

pEC50 [1]	Ratio EC50 [2]	pEC50 [3]	Structure (SMILES)
8.74	18.4	10.01	CCCCCCCCCCCCCCCC(=O)NCCCCCCNC(=O)C1CCCCNC(=O)CCN2C(=O)CC(SC[C@H](NC(=O)[C@H](Cc3ccc(O)cc3)NC(=O)[C@H](CCC(=O)O)NC(=O)[C@@H](NC(=O)[C@@H](NC(=O)[C@H](CC(=O)O)NC(=O)[C@H](CC(N)=O)NC(=O)[C@@H](NC(=O)[C@H](Cc3ccc(O)cc3)NC(=O)[C@@H](NC(=O)CNC(=O)[C@H](CCC(=O)O)NC(=O)C(C)(C)NC(=O)[C@@H](N)Cc3c[nH]cn3)[C@@H](C)O)[C@@H](C)O)C(C)C)[C@@H](C)O)C(=O)N[C@@H](CCC(=O)O)C(=O)N[C@@H](CCC(=O)O)C(=O)N[C@@H](CCC(=O)O)C(=O)N[C@@H](C)C(=O)N[C@@H](C)C(=O)N[C@@H](CCCCN)C(=O)N[C@H](C(=O)N[C@@H](Cc3ccccc3)C(=O)N[C@H](C(=O)N[C@@H](CCC(=O)O)C(=O)N[C@@H](Cc3c[nH]c4ccccc34)C(=O)N[C@@H](CC(C)C)C(=O)N[C@H](C(=O)N[C@@H](CCCCN)C(=O)NCC(=O)N[C@@H](CCCCN)C(N)=O)[C@@H](C)CC)[C@@H](C)CC)CSC3CC(=O)N(CCC(=O)N1)C3=O)C2=O (stereo not given in full) (HELM PEPTIDE1{H.[Aib].E.G.T.Y.T.N.D.V.T.E.Y.C.E.E.E.A.A.K.C.F.I.E.W.L.I.K.G.K.[am]}|CHEM1{[CCCCCCCCCCCCCCCC(=O)NCCCCCCNC(=O)C(CCCCNC(=O)CCN1C(=O)CC([*:1])C1=O)NC(=O)CCN1C(=O)CC([*:2])C1=O]}$PEPTIDE1,CHEM1,14:R3-1:R1|PEPTIDE1,CHEM1,21:R3-1:R2$$$V2.0)
8.85	10.8	9.89	CC[C@H](C)[C@H](NC(=O)[C@H](CC(C)C)NC(=O)[C@H](Cc1c[nH]c2ccccc12)NC(=O)[C@H](CCC(=O)O)NC(=O)[C@@H](NC(=O)[C@H](Cc1ccccc1)NC(=O)[C@@H]1CSC2CC(=O)N(CCC(=O)NC(C(=O)NCCCCCCNC(=O)COCCOCCNC(=O)CCCCCCCCCCCCCCCCC(=O)O)CCCCNC(=O)CCN3C(=O)CC(SC[C@H](NC(=O)[C@H](Cc4ccc(O)cc4)NC(=O)[C@H](CCC(=O)O)NC(=O)[C@@H](NC(=O)[C@@H](NC(=O)[C@H](CC(=O)O)NC(=O)[C@H](CC(N)=O)NC(=O)[C@@H](NC(=O)[C@H](Cc4ccc(O)cc4)NC(=O)[C@@H](NC(=O)CNC(=O)[C@H](CCC(=O)O)NC(=O)C(C)(C)NC(=O)[C@@H](N)Cc4c[nH]cn4)[C@@H](C)O)[C@@H](C)O)C(C)C)[C@@H](C)O)C(=O)N[C@@H](CCC(=O)O)C(=O)N[C@@H](CCC(=O)O)C(=O)N[C@@H](CCC(=O)O)C(=O)N[C@@H](C)C(=O)N[C@@H](C)C(=O)N[C@@H](CCCCN)C(=O)N1)C3=O)C2=O)[C@@H](C)CC)C(=O)N[C@@H](CCCCN)C(=O)NCC(=O)N[C@@H](CCCCN)C(N)=O (stereo not given in full) (HELM PEPTIDE1{H.[Aib].E.G.T.Y.T.N.D.V.T.E.Y.C.E.E.E.A.A.K.C.F.I.E.W.L.I.K.G.K.[am]}|CHEM1{[O=C(O)CCCCCCCCCCCCCCCCC(=O)NCCOCCOCC(=O)NCCCCCCNC(=O)C(CCCCNC(=O)CCN1C(=O)CC([*:1])C1=O)NC(=O)CCN1C(=O)CC([*:2])C1=O]}$PEPTIDE1,CHEM1,14:R3-1:R1|PEPTIDE1,CHEM1,21:R3-1:R2$$$V2.0)
